Series [1] is described as follows: flowability (coulabilité) test on the Hosokawa combined powder tester. Format: physicochemical. The conditions noted are these: for Angle de spatule / Angle de talus / Densité (non tassée): combiné Hosokawa. The source says:
Les propriétés de coulabilité et de dissolution du produit ainsi obtenu sont comparées à celle de paracétamol cristallisé paracétamol broyé (refus à 425 µ < 0,5 %, refus à 250 µ < 5 %) paracétamol broyé super fin (refus à 50 µ < 10 %, refus à 80 µ < 1 %) a) coulabilité : les produits sont testés sur le combiné Hosokawa commercialisé par Hosokawa Europe Ltd, St John's Estate, Tylers Green High Wycombe, Buckinghamshire, England.

A short description of series [2]: dissolution of suspensions of 1, 2 and 3 g in 200 cm3 of water, stirred at room temperature. Format: physicochemical. As to conditions: insoluble filtered, dried and weighed after at most 10 minutes. From the text:
Les résultats suivants sont obtenus :

[3] abbreviates: Concentration 5 g/l (1 g in 200 cm3 water).
Where [4] appears, read: Concentration 10 g/l (2 g in 200 cm3 water).
[5] abbreviates: Concentration 15 g/l (3 g in 200 cm3 water).

Each structure is given as a SMILES string. Where only a bound is given, the exact number is not on record here.

Regarding `CC(=O)Nc1ccc(O)cc1` [Aggloméré, paracétamol], the Angle de spatule in series [1] was 41°. Further, the Angle de talus in series [1] was found to be 37°. In addition, in series [1], the “Densité (non tassée)” value was determined as 400 kg/m3. Moreover, the coulabilité result in series [1] (result in words, compared with the crystallised and ground products) was “aussi bonne que le produit cristallisé”. Moreover, the Pourcentage dissous is listed as 100 in series [2] (setting [3]), 100 in series [2] (setting [4]) and above 98 in series [2] (setting [5]).
Consider `CC(=O)Nc1ccc(O)cc1` [Broyé super fin, paracétamol], for which, in series [1], the Angle de spatule is recorded as 76°, the Angle de talus is 60° and the “Densité (non tassée)” value amounted to 150 kg/m3. Moreover, in series [2] (setting [3]), the Pourcentage dissous amounted to 100. In series [2] (setting [4]), this compound had a Pourcentage dissous of 100. For the same compound, in series [2] (setting [5]), the Pourcentage dissous is listed as above 98.
Consider `CC(=O)Nc1ccc(O)cc1` [Broyé, paracétamol], for which, in series [1], the Angle de spatule worked out at 74°, the Angle de talus was found to be 56° and the “Densité (non tassée)” value was determined as 280 kg/m3. For the same compound, the Pourcentage dissous in series [2] (setting [3]) is on record as 100. For the same compound, the Pourcentage dissous in series [2] (setting [4]) is recorded as 100. In series [2] (setting [5]), this compound showed a Pourcentage dissous above 98.
In the case of `CC(=O)Nc1ccc(O)cc1` [Cristallisé, paracétamol], in series [1], the Angle de spatule came out at 39°, the Angle de talus is listed as 39° and the “Densité (non tassée)” value was 700 kg/m3. In addition, in series [2] (setting [3]), the Pourcentage dissous was above 95. This compound had a Pourcentage dissous in series [2] (setting [4]) of 85. This compound yielded a Pourcentage dissous in series [2] (setting [5]) of 83.

For the origin of these results see EP0219377A1, “Process for the preparation of spherical paracetamol agglomerates and products obtained thereby” (RHONE-POULENC SANTE, priority 1985, dated 1987).
